Laboratory results reported in patent publication US20260027083A1, “USE OF PPAR AGONIST FOR IMPROVEMENT OF ENERGY METABOLISM” (NOVMETAPHARMA CO., LTD., priority 2022, published 2026).

Assays:
[1] = test system: high-fat diet mice; experiment: Histology of liver tissues of high-fat diet mice (H&E, Sirius Red, Oil Red O, NAFLD activity score); format: in vivo, C57BL/6J mice; settings: 5 mg/kg/day oral, 13 weeks HFD
Procedure: After the differentiation of 3T3-L1 in the 12-well plate was completed, the cells were fixed with 4% paraformaldehyde and stained with an Oil Red O solution, and then the stained samples were photographed under a microscope (Nikon Eclipse Ti-s). An Oil Red O dye of the samples was dissolved in isopropanol, detected by a spectrophotometer at 492 nm, and the lipid droplet size distribution was measured using ImageJ. OCT-embedded liver samples were stained according to the Roy Ellis protocol.
(§1) The care and use of experimental animals were carried out with the approval of the Institutional Animal Care and Use Committee of Pohang University of Science and Technology. C57BL/6J mice were purchased from Japan SLC, Inc. 50 four-week-old male C57/BL/6J mice were acclimated for 2 weeks. The mice were randomly divided and orally administered with vehicle or 5 mg/kg/day of D6 or WY14643 for 13 weeks (oral gavage), and obesity was induced by a 60% high-fat diet (#D12492, Research diets, NJ, USA). Body weights and food intakes were measured weekly from 6 weeks of age, and after 16 weeks of age, adipose tissue and muscle volumes were measured using a Trimodality imaging system.
Mouse tissues were fixed with 10% formalin solution (Sigma-Aldrich, St. Louis, MO, USA), and paraffin-embedded tissues were segmented and stained with hematoxylin and eosin (H&E) staining and Sirius Red staining (IHC world, Woodstock, USA).
Fibrosis and vesicular fat in liver tissue were observed using Sirius Red and Oil Red O staining methods. The NAFLD activation score was evaluated by referring to Kleiner, D. E. et al. Hepatology 41, 1313-1321, doi: 10.1002/hep.20701 (2005), etc., according to the NASH Clinical Research Network Scoring System.
To evaluate the effects on fatty liver-related symptoms after administration of the compound represented by Chemical Formula […], Sirius Red, and Oil Red O staining were performed on liver tissues of mice fed with a high-fat diet for 13 weeks.

[2] = target: T1, His-tagged recombinant human PPARα ligand binding domain (Homo sapiens, UniProt Q07869); experiment: CNBr-bead conjugation (pull-down) assay, hPPARα-LBD; settings: CNBr-coupled drug, positive control WY14643, FIG. 2
T1 construct: made in house; host or cells: E. coli (DE3, Rosetta)
T1 sequence (Q07869 239-466 limits assumed): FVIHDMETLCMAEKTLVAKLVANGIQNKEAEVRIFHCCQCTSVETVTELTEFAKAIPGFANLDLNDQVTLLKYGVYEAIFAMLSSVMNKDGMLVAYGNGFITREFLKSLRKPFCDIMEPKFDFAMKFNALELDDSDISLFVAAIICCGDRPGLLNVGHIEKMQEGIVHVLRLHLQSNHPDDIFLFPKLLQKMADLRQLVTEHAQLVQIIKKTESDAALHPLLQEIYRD
Procedure: A compound of the present invention represented by Chemical Formula 1 was synthesized by DAEJUNG Chemicals & Metals (Gyeonggi-do, Korea) (indicated as ‘D6’ in the drawing). WY14643, GW501516, and rosiglitazone were purchased from Sigma-Aldrich (St. Louis, MO, USA). The compounds were dissolved in dimethyl sulfoxide (DMSO), diluted in a culture solution, and used in the experiment. Cyanogen bromide (CNBr)-activated Sepharose 4B was purchased from Sigma-Aldrich (St. Louis, MO, USA). His-tagged recombinant human PPAR-ligand binding domain (LBD) was expressed in E. coli (DE3, Rosetta) and then purified and used. A His antibody was purchased from Cell Signaling Technology (Danvers, Massachusetts, USA). 3-Isobutyl-1-methylxanthine (IBMX), dexamethasone, bovine pancreatic insulin, and Oil Red O were purchased from Sigma-Aldrich (St. Louis, MO, USA). A PRO-PREP™ Protein Extraction Solution was purchased from iNtRON Biotechnology (iNtRON Biotech., Korea). […]
100 mg of CNBr-activated Sepharose 4B was added to an e-tube, and then the beads were activated by rotating with 1 ml of 1 mM HCl for 10 minutes at room temperature. […] Each e-tube was added with the drug and rotated overnight at 4° C., at which time the concentration was measured to be 20 μM. […] The supernatant was completely removed, and the pellet was detected by Western blotting. […]

[3] = test system: high-fat diet mice; experiment: High-fat diet mice: body weight and food intake; format: in vivo, C57BL/6J mice; settings: 5 mg/kg/day oral, 13 weeks, 60% HFD, vs HFD-V, FIG. 6
Procedure: as §1
To confirm a metabolic disease inhibitory effect of the compound represented by Chemical Formula 1 through animal experiments, mice were acclimated for 2 weeks, and then obesity was induced by feeding a 60% high fat diet (HFD) and orally administered with vehicle or 5 mg/kg/day of the compound represented by Chemical Formula 1 (D6) or WY14643 for 13 weeks. Experiments such as IP-GTT, IP-ITT, and micro-CT were performed at the week 10 of drug administration (FIG. 5).

Question: What does the source list for `COc1ccc(-c2cc(=O)oc3c(C)c(OC(=O)[C@H](Cc4c[nH]c5ccccc45)NC(=O)OC(C)(C)C)ccc23)cc1` [Chemical Formula 1, [4-(4-methoxyphenyl)-8-methyl-2-oxochromen-7-yl] (2S)-3-(1H-indol-3-yl)-2-[(2-methylpropan-2-yl)oxycarbonylamino]propanoate]?
Answer: level of lipid droplet accumulation in the liver (Oil Red O) ([1]; FIG. 18): reduced; NAFLD activity score (H&E images of liver tissue) ([1]; compared with WY14643 5 mg/kg/day, FIG. 17): better effect of improving the NAFLD disease index than the high-fat diet mice (HFD-WY) administered with WY14643; histological findings of fatty liver-related diseases in liver tissue ([1]; vs HFD-V, FIG. 16): reduced; conjugation (binding) to hPPARα-LBD, Western blotting [2]: as much potently as a PPAR agonist used as a positive control; food intake [3]: no significant change; rate of weight gain [3]: significantly reduced
